# In ChEMBL document CHEMBL6087396, “Perspective for Drug Discovery Targeting SARS Coronavirus Methyltransferases: Function, Structure and Inhibition” (J Med Chem, 2024):
# Experiments:
# [1] = molecular target: Replicase polyprotein 1ab; assay: Inhibition of N-terminal 6His-tagged SARS-CoV nsp14 extracted from Escherichia coli
# SARS-CoV-2 = assay: Antiviral activity against SARS-CoV-2 infected in African green monkey Vero E6 cells assessed as inhibition of viral growth incubated for 72 hrs by plaque assay; assay type: functional, organism-based; settings: Severe acute respiratory syndrome coronavirus 2, Vero C1008, 72 h
# [2] = molecular target: T1, Replicase polyprotein 1ab (Severe acute respiratory syndrome coronavirus 2, UniProt P0DTD1); assay: Binding affinity to SARS-CoV-2 nsp14 assessed as inhibition constant
# [3] = molecular target: T1, Replicase polyprotein 1ab; assay: Binding affinity to SARS-CoV-2 nsp14 assessed as dissociation constant
SMILES,IC50 [1] [µM],EC50 (SARS-CoV-2) [µM],other results
COc1ccc(S(=O)(=O)N(C)C[C@H]2O[C@@H](n3cc(C#Cc4cnc5ccccc5c4)c4c(N)ncnc43)[C@H](O)[C@@H]2O)cc1C#N,0.72,,
O=c1nc2n(CCO)c3ccccc3nc-2c(=O)n1-c1ccccc1,,0.0057,
Nc1ncnc2c1ncn2[C@@H]1O[C@H](CNS(=O)(=O)c2ccc3ccccc3c2)[C@@H](O)[C@H]1O,93,,
Nc1ncnc2c1ncn2[C@@H]1O[C@H](CSCC[C@H](N)C(=O)O)[C@@H](O)[C@H]1O [S-ADENOSYLHOMOCYSTEINE],16,,
Nc1ncnc2c1ncn2[C@@H]1O[C@H](CSCc2cc(C(=O)O)cc(-c3ccccc3)c2)[C@@H](O)[C@H]1O,0.58,,
Nc1ncnc2c1ncn2[C@@H]1O[C@H](CSCCCCNCc2cccc(-c3ccc(Cl)cc3)c2)[C@@H](O)[C@H]1O,,,Ki [2]: 6 µM
CCN(C[C@H]1O[C@@H](n2cnc3c(N)ncnc32)[C@H](O)[C@@H]1O)S(=O)(=O)c1ccc(Cl)c(C#N)c1,,0.0019,
NC[C@@H](CC[C@H](N)C(=O)O)C[C@H]1O[C@@H](n2cnc3c(N)ncnc32)[C@H](O)[C@@H]1O,1.1,,Kd [3]: 0.0016 µM
Nc1ncnc2c1ncn2[C@@H]1O[C@H](CN(CCO[C@@H]2[C@H](O)[C@@H](CO)O[C@H]2n2cnc3c(N)ncnc32)S(=O)(=O)c2ccc(Cl)c([N+](=O)[O-])c2)[C@@H](O)[C@H]1O,0.6,,
Cc1cc(=O)oc2cc(NC(=O)[C@H]3O[C@@H](n4cc(C#Cc5cncnc5)c5c(N)ncnc54)[C@H](O)[C@@H]3O)ccc12,31,,
O=c1c2ccccc2[se]n1-c1ccccc1 [EBSELEN],,0.034,
O=C(O)C1=CC(=C(c2ccc(O)c(C(=O)O)c2)c2ccc(O)c(C(=O)O)c2)C=CC1=O [AURINTRICARBOXYLIC ACID],,0.00047,
CC(=O)c1cc(O)c2ccccc2c1O,,0.0085,
N#Cc1ccc(N2N=C3c4ccc(C(=O)O)cc4CC[C@@H]3[C@@H]2C2CCCC2)cc1Cl [PF-03882845],,0.011,
CC(C)N(CCCNC(=O)Nc1ccc(C(C)(C)C)cc1)C[C@H]1O[C@@H](n2cc(Br)c3c(N)ncnc32)[C@H](O)[C@@H]1O,,,Ki [2]: 8 µM
Nc1ncnc2c1c(C#Cc1cnc3ccccc3c1)cn2[C@@H]1O[C@H](CSCC[C@H](N)C(=O)O)[C@@H](O)[C@H]1O,0.003,,Kd [3]: 0.0252 µM
CC1=C(C)C(=O)C(C(C)(C)CC(=O)N(CCCCSC[C@H]2O[C@@H](n3cnc4c(N)ncnc43)[C@H](O)[C@@H]2O)Cc2cccc(-c3ccc(Cl)cc3)c2)=C(C)C1=O,1.1,,
